From ChEMBL document CHEMBL3044671, “Synthesis and in vitro antimicrobial and anti-tubercular evaluation of some quinoline-based azitidinone and thiazolidinone analogues” (2013) come the findings set out here.

What all share (type): functional
Assay [1] concerns Pseudomonas aeruginosa. Description: Antimicrobial activity against Pseudomonas aeruginosa MTCC 741 assessed as diameter of growth zone inhibition by agar streak dilution method.
Assay [2] concerns Escherichia coli. The assay can be described thus: Antimicrobial activity against Escherichia coli MTCC 739 assessed as diameter of growth zone inhibition by agar streak dilution method.
Assay [3] relates to Staphylococcus aureus. Description: Antimicrobial activity against Staphylococcus aureus MTCC 96 assessed as diameter of growth zone inhibition by agar streak dilution method.
Assay [4] deals with Bacillus subtilis. The assay can be described thus: Antimicrobial activity against Bacillus subtilis MTCC 430 assessed as diameter of growth zone inhibition by agar streak dilution method.
Assay [5] deals with Pseudomonas aeruginosa. Description: Antimicrobial activity against Pseudomonas aeruginosa MTCC 741 assessed as growth inhibition by agar streak dilution method.
In assay [6] the test system is Escherichia coli. Description: Antimicrobial activity against Escherichia coli MTCC 739 assessed as growth inhibition by agar streak dilution method.
The subject of assay [7] is Bacillus subtilis. The assay can be described thus: Antimicrobial activity against Bacillus subtilis MTCC 430 assessed as growth inhibition by agar streak dilution method.
In assay [8] the test system is Staphylococcus aureus. Description: Antimicrobial activity against Staphylococcus aureus MTCC 96 assessed as growth inhibition by agar streak dilution method.
Assay [9] has as its system Mycobacterium tuberculosis. Description: Antitubercular activity against Mycobacterium tuberculosis H37Rv assessed as growth inhibition by BACTEC MGIT method.
Assay [10] deals with Candida albicans. The assay can be described thus: Antimicrobial activity against Candida albicans MTCC 183 assessed as diameter of growth zone inhibition by agar streak dilution method.
The subject of assay [11] is Aspergillus niger. Description: Antimicrobial activity against Aspergillus niger MTCC 282 assessed as diameter of growth zone inhibition by agar streak dilution method.
In assay [12] the test system is Candida albicans. Description: Antimicrobial activity against Candida albicans MTCC 183 assessed as growth inhibition by agar streak dilution method.
Assay [13] deals with Aspergillus niger. Description: Antimicrobial activity against Aspergillus niger MTCC 282 assessed as growth inhibition by agar streak dilution method.

Values after ≈ are worked out from the molar mass of the structure shown. A value given as a limit tells only on which side of the number the result lay.

As a reminder, the MIC is the lowest concentration found to suppress growth.

As to `O=C(O)c1cn(C2CC2)c2cc(N3CCNCC3)c(F)cc2c1=O` [CIPROFLOXACIN], the “diameter of the inhibition zone (DIZ)” value is on record as 33 mm in the assay on Pseudomonas aeruginosa [1], 32 mm with Escherichia coli [2], 30 mm in the assay with Staphylococcus aureus [3] and 31 mm with Bacillus subtilis [4]. In addition, the MIC with Pseudomonas aeruginosa [5], in the assay with Escherichia coli [6], in the assay on Bacillus subtilis [7] and with Staphylococcus aureus [8] was at most 1 µg/mL in each case.
As to `Cc1cnc(N2C(=O)C(Cl)C2c2cc3ccccc3nc2S)s1` (stereo unspecified), the MIC in [9] was found to be 125 µg/mL (≈ 345 µM); in the assay on Candida albicans [12] it was 62.5 µg/mL (≈ 173 µM); in the assay with Aspergillus niger [13], 50 µg/mL (≈ 138 µM); in the assay on Pseudomonas aeruginosa [5], 100 µg/mL (≈ 276 µM); in the assay with Escherichia coli [6], 12.5 µg/mL (≈ 34.5 µM); in the assay with Bacillus subtilis [7], 6.25 µg/mL (≈ 17.3 µM). The minimal inhibitory concentration (MIC) with Staphylococcus aureus [8] came to 25 µg/mL (≈ 69.1 µM). Further, the “diameter of the inhibition zone (DIZ)” value stood at 24 mm with Candida albicans [10]; 22 mm in the assay with Aspergillus niger [11]; 22 mm in the assay on Pseudomonas aeruginosa [1]; 24 mm in the assay on Escherichia coli [2]; 24 mm in the assay on Staphylococcus aureus [3]; 22 mm in the assay on Bacillus subtilis [4].
`O=C1CSC(c2cc3ccccc3nc2S)N1c1ccc(F)cc1` (stereo unspecified): the MIC was 62.5 µg/mL (≈ 175 µM) in assay [9]; 25 µg/mL (≈ 70.1 µM) in the assay on Candida albicans [12]; 12.5 µg/mL (≈ 35.1 µM) in the assay on Aspergillus niger [13]; 50 µg/mL (≈ 140 µM) in the assay with Pseudomonas aeruginosa [5]; 12.5 µg/mL (≈ 35.1 µM) in the assay with Escherichia coli [6]; 6.25 µg/mL (≈ 17.5 µM) in the assay with Bacillus subtilis [7]. In addition, the MIC in the assay with Staphylococcus aureus [8] was determined as 3.12 µg/mL (≈ 8.75 µM). For the same compound, the “diameter of the inhibition zone (DIZ)” value in the assay with Candida albicans [10] was 26 mm; in the assay with Aspergillus niger [11], 26 mm; in the assay on Pseudomonas aeruginosa [1] it was 24 mm; in the assay with Escherichia coli [2], 24 mm; in the assay on Staphylococcus aureus [3], 25 mm; in the assay with Bacillus subtilis [4], 25 mm.
As to `O=C1C(Cl)C(c2cc3ccccc3nc2S)N1c1ccc(F)cc1` (stereo unspecified), the MIC in assay [9] was determined as 62.5 µg/mL (≈ 174 µM); in the assay on Candida albicans [12], 25 µg/mL (≈ 69.7 µM); with Aspergillus niger [13], 12.5 µg/mL (≈ 34.8 µM); in the assay on Pseudomonas aeruginosa [5], 25 µg/mL (≈ 69.7 µM); with Escherichia coli [6], 12.5 µg/mL (≈ 34.8 µM); in the assay on Bacillus subtilis [7] it was 6.25 µg/mL (≈ 17.4 µM). In addition, the MIC with Staphylococcus aureus [8] was found to be 6.25 µg/mL (≈ 17.4 µM). Besides, the “diameter of the inhibition zone (DIZ)” value in the assay with Candida albicans [10] was 24 mm; in the assay with Aspergillus niger [11], 25 mm; with Pseudomonas aeruginosa [1] it was 23 mm; with Escherichia coli [2] it was 24 mm; in the assay with Staphylococcus aureus [3], 26 mm; in the assay with Bacillus subtilis [4] it was 25 mm.
For the compound `O=C1C(Cl)C(c2cc3ccccc3nc2S)N1c1ccc(Cl)cc1` (stereo unspecified), the MIC in assay [9] stood at 62.5 µg/mL (≈ 167 µM); in the assay on Candida albicans [12] it was 100 µg/mL (≈ 266 µM); in the assay with Aspergillus niger [13], 25 µg/mL (≈ 66.6 µM); in the assay with Pseudomonas aeruginosa [5], 25 µg/mL (≈ 66.6 µM); in the assay with Escherichia coli [6], 25 µg/mL (≈ 66.6 µM); in the assay on Bacillus subtilis [7] it was 6.25 µg/mL (≈ 16.7 µM). For the same compound, in the assay with Staphylococcus aureus [8], the MIC turned out to be 6.25 µg/mL (≈ 16.7 µM). Further, the “diameter of the inhibition zone (DIZ)” value in the assay with Candida albicans [10] is 22 mm; in the assay with Aspergillus niger [11], 25 mm; in the assay with Pseudomonas aeruginosa [1], 24 mm; in the assay on Escherichia coli [2], 24 mm; in the assay with Staphylococcus aureus [3], 26 mm; with Bacillus subtilis [4], 25 mm.
In the case of `O=C1CSC(c2cc3ccccc3nc2S)N1c1ccc(Cl)cc1` (stereo unspecified), the minimal inhibitory concentration (MIC) amounted to 62.5 µg/mL (≈ 168 µM) in [9]; 100 µg/mL (≈ 268 µM) in the assay with Candida albicans [12]; 12.5 µg/mL (≈ 33.5 µM) with Aspergillus niger [13]; 25 µg/mL (≈ 67 µM) in the assay on Pseudomonas aeruginosa [5]; 25 µg/mL (≈ 67 µM) in the assay on Escherichia coli [6]; 3.12 µg/mL (≈ 8.37 µM) with Bacillus subtilis [7]. In addition, the MIC with Staphylococcus aureus [8] came to 6.25 µg/mL (≈ 16.8 µM). Also, the “diameter of the inhibition zone (DIZ)” value was 24 mm in the assay with Candida albicans [10]; 25 mm in the assay with Aspergillus niger [11]; 24 mm in the assay on Pseudomonas aeruginosa [1]; 23 mm with Escherichia coli [2]; 25 mm with Staphylococcus aureus [3]; 25 mm in the assay with Bacillus subtilis [4].
For the compound `O=C1CSC(c2cc3ccccc3nc2S)N1c1ccccc1[N+](=O)[O-]` (stereo unspecified), the MIC in assay [9] is 250 µg/mL (≈ 652 µM); with Candida albicans [12], 62.5 µg/mL (≈ 163 µM); with Aspergillus niger [13], 50 µg/mL (≈ 130 µM); in the assay on Pseudomonas aeruginosa [5] it was 25 µg/mL (≈ 65.2 µM); with Escherichia coli [6], 62.5 µg/mL (≈ 163 µM); in the assay with Bacillus subtilis [7], 62.5 µg/mL (≈ 163 µM). Further, the MIC with Staphylococcus aureus [8] came to 62.5 µg/mL (≈ 163 µM). In addition, the “diameter of the inhibition zone (DIZ)” value in the assay on Candida albicans [10] came to 22 mm; in the assay on Aspergillus niger [11], 23 mm; with Pseudomonas aeruginosa [1], 23 mm; in the assay on Escherichia coli [2], 23 mm; in the assay on Staphylococcus aureus [3], 22 mm; in the assay on Bacillus subtilis [4], 23 mm.
Take `NNC(=O)c1ccncc1` [ISONIAZID]: in assay [9], the MIC amounted to 0.2 µg/mL (≈ 1.46 µM).
For the compound `O=C1CSC(c2cc3ccccc3nc2S)N1c1cccc(Cl)c1` (stereo unspecified), the MIC in assay [9] is 125 µg/mL (≈ 335 µM); in the assay on Candida albicans [12], 62.5 µg/mL (≈ 168 µM); in the assay on Aspergillus niger [13], 50 µg/mL (≈ 134 µM); in the assay on Pseudomonas aeruginosa [5] it was 12.5 µg/mL (≈ 33.5 µM); in the assay with Escherichia coli [6], 50 µg/mL (≈ 134 µM); in the assay with Bacillus subtilis [7] it was 3.12 µg/mL (≈ 8.37 µM). In addition, the MIC with Staphylococcus aureus [8] is 6.25 µg/mL (≈ 16.8 µM). In addition, the “diameter of the inhibition zone (DIZ)” value is recorded as 22 mm in the assay with Candida albicans [10]; 25 mm with Aspergillus niger [11]; 25 mm in the assay with Pseudomonas aeruginosa [1]; 22 mm with Escherichia coli [2]; 24 mm with Staphylococcus aureus [3]; 25 mm in the assay on Bacillus subtilis [4].
In the case of `O=C1CSC(c2cc3ccccc3nc2S)N1c1ccc([N+](=O)[O-])cc1` (stereo unspecified), the MIC in assay [9] came to 62.5 µg/mL (≈ 163 µM); in the assay with Candida albicans [12] it was 100 µg/mL (≈ 261 µM); in the assay on Aspergillus niger [13], 25 µg/mL (≈ 65.2 µM); in the assay on Pseudomonas aeruginosa [5], 12.5 µg/mL (≈ 32.6 µM); in the assay on Escherichia coli [6] it was 6.25 µg/mL (≈ 16.3 µM); in the assay on Bacillus subtilis [7], 50 µg/mL (≈ 130 µM). Further, the MIC with Staphylococcus aureus [8] came to 12.5 µg/mL (≈ 32.6 µM). Besides, the “diameter of the inhibition zone (DIZ)” value in the assay on Candida albicans [10] was found to be 18 mm; in the assay on Aspergillus niger [11], 25 mm; with Pseudomonas aeruginosa [1] it was 24 mm; with Escherichia coli [2] it was 23 mm; in the assay with Staphylococcus aureus [3], 23 mm; in the assay with Bacillus subtilis [4] it was 23 mm.
For the compound `Cc1ccc(N2C(=O)CSC2c2cc3ccccc3nc2S)cc1` (stereo unspecified), the MIC was 250 µg/mL (≈ 709 µM) in assay [9]; 100 µg/mL (≈ 284 µM) in the assay with Candida albicans [12]; 100 µg/mL (≈ 284 µM) with Aspergillus niger [13]; 100 µg/mL (≈ 284 µM) in the assay with Pseudomonas aeruginosa [5]; 100 µg/mL (≈ 284 µM) in the assay on Escherichia coli [6]; 100 µg/mL (≈ 284 µM) with Bacillus subtilis [7]. In addition, in the assay on Staphylococcus aureus [8], the MIC stood at 100 µg/mL (≈ 284 µM). For the same compound, the “diameter of the inhibition zone (DIZ)” value in the assay with Candida albicans [10] was 15 mm; in the assay on Aspergillus niger [11] it was 17 mm; in the assay with Pseudomonas aeruginosa [1], 19 mm; in the assay on Escherichia coli [2], 19 mm; with Staphylococcus aureus [3], 20 mm; in the assay with Bacillus subtilis [4] it was 20 mm.
Take `CC(=O)N1CCN(c2ccc(OCC3COC(Cn4ccnc4)(c4ccc(Cl)cc4Cl)O3)cc2)CC1` (stereo unspecified) [KETOCONAZOLE]: the “diameter of the inhibition zone (DIZ)” value with Candida albicans [10] was 33 mm; in the assay on Aspergillus niger [11] it was 30 mm. In addition, the MIC in the assay with Candida albicans [12] was at most 1 µg/mL; in the assay with Aspergillus niger [13] it was at most 3 µg/mL.
Consider `CO[C@H]1/C=C/O[C@@]2(C)Oc3c(C)c(O)c4c(O)c(c(/C=N/N5CCN(C)CC5)c(O)c4c3C2=O)NC(=O)/C(C)=C\C=C\[C@H](C)[C@H](O)[C@@H](C)[C@@H](O)[C@@H](C)[C@H](OC(C)=O)[C@@H]1C` [RIFAMPIN], for which the MIC in assay [9] worked out at 40 µg/mL (≈ 48.6 µM).
